Reference: US9663473B2 (Actelion Pharmaceuticals Ltd, priority 2013, dated 2017)
Where a name gives a salt, the structure may show the parent alone.

Molecular target: T1, recombinant human ALX receptor (Homo sapiens, UniProt P25090)
T1 construct: expressed in transfected cells; host or cells: HEK293 (HEK293-hALXR-Gα16)
T1 sequence (P25090 1-351): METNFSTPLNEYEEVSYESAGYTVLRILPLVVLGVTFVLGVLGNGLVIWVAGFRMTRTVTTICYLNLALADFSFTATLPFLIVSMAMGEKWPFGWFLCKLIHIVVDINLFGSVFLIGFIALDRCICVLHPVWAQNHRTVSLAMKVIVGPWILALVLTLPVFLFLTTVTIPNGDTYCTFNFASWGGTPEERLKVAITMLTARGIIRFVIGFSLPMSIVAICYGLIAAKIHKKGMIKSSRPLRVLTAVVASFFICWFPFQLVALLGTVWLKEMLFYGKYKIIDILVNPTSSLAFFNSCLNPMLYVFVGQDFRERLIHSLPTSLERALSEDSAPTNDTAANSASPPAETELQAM
Experiment: Intracellular calcium measurements (FLIPR), ALX receptor agonistic activity
Type: cell-based
Settings: HEK293-hALXR-Gα16 cells, Fluo-4 calcium signal, normalized to WKYMVm 10 nM
Method in brief: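 HEK293 cells co-expressing human ALX receptor and Gα16 were loaded with 1 μM Fluo-4 AM for 60 min at 37° C., then exposed to serially diluted compounds on FLIPR Tetra. Peak fluorescence above baseline (ex 488/em 540 nm) was normalized to 10 nM WKYMVm as high control.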

EC50 [nM] | SMILES
1700 | O=C(NC(Cc1ccc(C(F)(F)F)cc1F)c1nc2ccccc2[nH]1)N[C@H]1CC[C@H](O)CC1 (single isomer, unassigned; ent-1) [Example 399, 1-(1-(1H-Benzo[d]imidazol-2-yl)-2-(2-fluoro-4-(trifluoromethyl)phenyl)ethyl)-3-(trans-4-hydroxycyclohexyl)urea (ent-1)]
2.6 | O=C(NC(Cc1ccc(Br)c(F)c1)c1nc2ccc(F)cc2[nH]1)NC12CCC(O)(CC1)CC2 (single isomer, unassigned; ent-1) [Example 400, 1-(2-(4-bromo-3-fluorophenyl)-1-(6-fluoro-1H-benzo[d]imidazol-2-yl)ethyl)-3-(4-hydroxybicyclo[2.2.2]octan-1-yl)urea (ent-1)]
119 | COc1ccc(CC(NC(=O)N[C@H]2CC[C@H](O)CC2)c2nc3cc(Br)c(Br)cc3[nH]2)cc1 (single isomer, unassigned; ent-1) [Example 425, 1-(1-(5,6-dibromo-1H-benzo[d]imidazol-2-yl)-2-(4-methoxyphenyl)ethyl)-3-(trans-4-hydroxycyclohexyl)urea (ent-1)]
11 | O=C(NC(Cc1ccc(Br)c(F)c1)c1nc2ccccc2[nH]1)N[C@H]1CC[C@H](O)CC1 (single isomer, unassigned; ent-2) [Example 262, 1-(1-(1H-Benzo[d]imidazol-2-yl)-2-(4-bromo-3-fluorophenyl)ethyl)-3-(trans-4-hydroxycyclohexyl)urea (ent-2)]
3.3 | COc1ccc(CC(NC(=O)N[C@H]2CC[C@H](O)CC2)c2nc3ccccc3[nH]2)c(F)c1 (single isomer, unassigned; ent-2) [Example 310, 1-(1-(1H-Benzo[d]imidazol-2-yl)-2-(2-fluoro-4-methoxyphenyl)ethyl)-3-(trans-4-hydroxycyclohexyl)urea (ent-2)]
5.7 | CC1(O)CCC(NC(=O)NC(Cc2ccc(Br)c(F)c2)c2nc3ccccc3[nH]2)CC1 (single isomer, unassigned; ent-2) [Example 317, 1-(1-(1H-Benzo[d]imidazol-2-yl)-2-(4-bromo-3-fluorophenyl)ethyl)-3-(trans-4-hydroxy-4-methylcyclohexyl)urea (ent-2)]
19 | O=C(NC(Cc1ccc(C(F)(F)F)cc1F)c1nc2ccccc2[nH]1)N[C@H]1CC[C@H](O)CC1 (single isomer, unassigned; ent-2) [Example 359, 1-(1-(1H-Benzo[d]imidazol-2-yl)-2-(2-fluoro-4-(trifluoromethyl)phenyl)ethyl)-3-(trans-4-hydroxycyclohexyl)urea (ent-2)]
7.2 | O=C(NC(Cc1ccc(C(F)F)cc1)c1nc2ccccc2[nH]1)N[C@H]1CC[C@H](O)CC1 (single isomer, unassigned; ent-2) [Example 369, 1-(1-(1H-Benzo[d]imidazol-2-yl)-2-(4-(difluoromethyl)phenyl)ethyl)-3-(trans-4-hydroxycyclohexyl)urea (ent-2)]
717 | COc1ccc(CC(NC(=O)N[C@H]2CC[C@H](O)CC2)c2nc3ccc(F)cc3[nH]2)c(F)c1 (single isomer, unassigned; ent-2) [Example 370, 1-(1-(6-Fluoro-1H-benzo[d]imidazol-2-yl)-2-(2-fluoro-4-methoxyphenyl)ethyl)-3-(trans-4-hydroxycyclohexyl)urea (ent-2)]
250 | COc1ccc(CC(NC(=O)N[C@H]2CC[C@H](O)CC2)c2nc3ccc(F)cc3[nH]2)cc1F (single isomer, unassigned; ent-2) [Example 371, 1-(1-(6-Fluoro-1H-benzo[d]imidazol-2-yl)-2-(3-fluoro-4-methoxyphenyl)ethyl)-3-(trans-4-hydroxycyclohexyl)urea (ent-2)]
769 | COc1ccc(CC(NC(=O)NC23CCC(O)(CC2)CC3)c2nc3ccc(F)cc3[nH]2)cc1F (single isomer, unassigned; ent-2) [Example 372, 1-(1-(6-Fluoro-1H-benzo[d]imidazol-2-yl)-2-(3-fluoro-4-methoxyphenyl)ethyl)-3-(4-hydroxybicyclo[2.2.2]octan-1-yl)urea (ent-2)]
107 | COc1cc(F)c(CC(NC(=O)NC23CCC(O)(CC2)CC3)c2nc3ccc(F)cc3[nH]2)c(F)c1 (single isomer, unassigned; ent-2) [Example 373, 1-(2-(2,6-Difluoro-4-methoxyphenyl)-1-(6-fluoro-1H-benzo[d]imidazol-2-yl)ethyl)-3-(4-hydroxybicyclo[2.2.2]octan-1-yl)urea (ent-2)]
597 | CCc1ccc(CC(NC(=O)N[C@H]2CC[C@H](O)CC2)c2nc3cc(F)ccc3[nH]2)cc1 (single isomer, unassigned; ent-2) [Example 374, 1-(2-(4-Ethylphenyl)-1-(5-fluoro-1H-benzo[d]imidazol-2-yl)ethyl)-3-(trans-4-hydroxycyclohexyl)urea (ent-2)]
67 | COc1ccc(CC(NC(=O)N[C@H]2CC[C@H](O)CC2)c2nc3cc(F)ccc3[nH]2)c(F)c1F (single isomer, unassigned; ent-2) [Example 376, 1-(2-(2,3-Difluoro-4-methoxyphenyl)-1-(5-fluoro-1H-benzo[d]imidazol-2-yl)ethyl)-3-(trans-4-hydroxycyclohexyl)urea (ent-2)]
2620 | COc1ccc(CC(NC(=O)NC23CCC(O)(CC2)CC3)c2nc3ccc(F)cc3[nH]2)c(F)c1 (single isomer, unassigned; ent-2) [Example 398, 1-(1-(6-Fluoro-1H-benzo[d]imidazol-2-yl)-2-(2-fluoro-4-methoxyphenyl)ethyl)-3-(4-hydroxybicyclo[2.2.2]octan-1-yl)urea (ent-2)]
7.8 | COc1ccc(C[C@@H](NC(=O)N[C@H]2CC[C@H](O)CC2)c2nc3ccccc3[nH]2)cc1 [Example 4, 1-((R)-1-(1H-Benzo[d]imidazol-2-yl)-2-(4-methoxyphenyl)ethyl)-3-(trans-4-hydroxycyclohexyl)urea]
602 | COc1ccc(C[C@@H](NC(=O)NCc2cccc(OC)c2)c2nc3ccccc3[nH]2)cc1 [Example 5, (R)-1-(1-(1H-Benzo[d]imidazol-2-yl)-2-(4-methoxyphenyl)ethyl)-3-(3-methoxybenzyl)urea]
378 | COc1ccc(C[C@@H](NC(=O)NCCc2cccc(OC)c2)c2nc3ccccc3[nH]2)cc1 [Example 6, (R)-1-(1-(1H-Benzo[d]imidazol-2-yl)-2-(4-methoxyphenyl)ethyl)-3-(3-methoxyphenethyl)urea]
315 | COc1ccc(C[C@@H](NC(=O)Nc2cc(C)n(C)n2)c2nc3ccccc3[nH]2)cc1 [Example 7, (R)-1-(1-(1H-Benzo[d]imidazol-2-yl)-2-(4-methoxyphenyl)ethyl)-3-(1,5-dimethyl-1H-pyrazol-3-yl)urea]
593 | COc1ccc(CC(NC(=O)NCCc2ccccn2)c2nc3ccccc3[nH]2)cc1 (centres unmarked) [Example 8, 1-(1-(1H-Benzo[d]imidazol-2-yl)-2-(4-methoxyphenyl)ethyl)-3-(2-(pyridin-2-yl)ethyl)urea]
450 | COc1ccc(CC(NC(=O)NCC(F)(F)F)c2nc3ccccc3[nH]2)cc1 (centres unmarked) [Example 9, 1-(1-(1H-Benzo[d]imidazol-2-yl)-2-(4-methoxyphenyl)ethyl)-3-(2,2,2-trifluoroethyl)urea]
113 | COc1ccc(CC(NC(=O)NC2CCOCC2)c2nc3ccccc3[nH]2)cc1 (centres unmarked) [Example 10, 1-(1-(1H-Benzo[d]imidazol-2-yl)-2-(4-methoxyphenyl)ethyl)-3-(tetrahydro-2H-pyran-4-yl)urea]
62 | COc1ccc(CC(NC(=O)NC2CCC2)c2nc3ccccc3[nH]2)cc1 (centres unmarked) [Example 11, 1-(1-(1H-Benzo[d]imidazol-2-yl)-2-(4-methoxyphenyl)ethyl)-3-cyclobutylurea]
45 | COc1ccc(CC(NC(=O)NC2CCCC2)c2nc3ccccc3[nH]2)cc1 (centres unmarked) [Example 12, 1-(1-(1H-Benzo[d]imidazol-2-yl)-2-(4-methoxyphenyl)ethyl)-3-cyclopentylurea]
27 | COc1ccc(C[C@@H](NC(=O)NC2CC=CC2)c2nc3ccccc3[nH]2)cc1 [Example 13, (R)-1-(1-(1H-Benzo[d]imidazol-2-yl)-2-(4-methoxyphenyl)ethyl)-3-(cyclopent-3-en-1-yl)urea hydrochloride]
38 | COc1ccc(C[C@@H](NC(=O)NC2CCC(F)(F)CC2)c2nc3ccccc3[nH]2)cc1 [Example 14, (R)-1-(1-(1H-Benzo[d]imidazol-2-yl)-2-(4-methoxyphenyl)ethyl)-3-(4,4-difluorocyclohexyl)urea]
59 | COc1ccc(C[C@@H](NC(=O)NC2CCc3ccccc3C2)c2nc3ccccc3[nH]2)cc1 (stereo partly drawn) [Example 15, 1-((R)-1-(1H-Benzo[d]imidazol-2-yl)-2-(4-methoxyphenyl)ethyl)-3-(1,2,3,4-tetrahydronaphthalen-2-yl)urea hydrochloride]
47 | COc1ccc(C[C@@H](NC(=O)NC2CCCCC2)c2nc3ccccc3[nH]2)cc1 [Example 17, (R)-1-(1-(1H-Benzo[d]imidazol-2-yl)-2-(4-methoxyphenyl)ethyl)-3-cyclohexylurea hydrochloride]
600 | COc1ccc(C[C@@H](NC(=O)NC2CC2)c2nc3ccccc3[nH]2)cc1 [Example 19, (R)-1-(1-(1H-Benzo[d]imidazol-2-yl)-2-(4-methoxyphenyl)ethyl)-3-cyclopropylurea]
